Source: patent publication US20120004137A1, “IDENTIFICATION OF NUCLEIC ACID DELIVERY VEHICLES USING DNA DISPLAY” (X-Body, Inc., priority 2009, published 2012)
Ends that are not written are not given here. * marks the point of attachment. Biotin = O=C1N[C@H]2[C@H](CS[C@H]2CCCCC(=O)*)N1

Test system: HEK293T cells
Assay: Transfection-independent cytoplasmic entry, T7 RNAP RT-PCR assay
Assay type: cell-based
Conditions: 40 pmol biotin:streptavidin dsDNA-SA-peptide assembly added without transfection reagent to HEK293T cells transiently transfected with T7_pEF/myc/cyto; lysed 18 hours later; FIG. 14 bottom panel
Protocol: To determine if cytoplasmic T7 would be active as a polymerase in mammalian cells, we developed a transient transfection assay in HEK293T cells (FIG. 5). Cells were seeded in 24-well dishes at 350,000 cells/well and then incubated overnight in Eagle's Minimum Essential Medium supplemented with 10% fetal bovine serum (FBS). A DNA template containing the T7 promoter upstream of the coding region of a VH antibody domain was prepared by PCR as follows. VH DNA from a naïve human VH library was PCR amplified (Strategene 600312) with a 5′ oligo coding for in vitro transcription and translation signal T7TMV (5′-TAATACG […]-3′; SEQ ID NO: 3)) and a 3′ oligo annealing to the C-terminal VH DNA Cmu and SA linker region, Y15 (5′-[…]-3′; SEQ ID NO: 4). The PCR product was gel purified. […] This specific RNA is then detected and amplified by RT-PCR. […]
For the cytoplasmic entry selections to be successful, biotin-streptavidin assemblies of oligonucleotide and encoded peptide or protein must be competent as T7 polymerase templates. To test whether a complex of biotinylated peptide or VH binder assembled with streptavidin can be transfected into cells, transcribed by T7 RNAP, and detected by RT-PCR, the above VH DNA was modified to carry both SP6 and T7 promoter sequences at the 5′ end (5′-[…]-3′; SEQ ID NO: 9) and Cmu-flag-SA-polyA sequence at the 3′ end (FIG. 12). […]

Substance | cellular uptake / RT-PCR activity as a result of cytoplasmic T7 polymerase activity
Biotin-KKWKMRRNQFWVKVQRG [ANT] | cellular uptake of the peptide assemblies occurs
Biotin-YGRKKRRQRRR [TAT] | cellular uptake of the peptide assemblies occurs
